From patent publication US4075190A, “Pentapeptide with morphine-like activity” (American Home Products Corporation, priority 1977, dated 1978)
Square brackets hold non-standard residues; d marks the D form. Peptide text beside a SMILES is read from it.

Legend:
[1] = system: rats; test: rat-tail flick method, intracerebroventricular injection; assay type: in vivo; conditions: for Mean % Change ± SEM: change in latency, drug minus baseline; for analgesic effect / pain threshold: injected into the lateral brain ventricle; for analgesic effect / pain threshold / Mean Latency ± SEM, Drug: rat-tail flick; for Mean Latency ± SEM, Drug: after drug
Experimental: In this test method, which is a standard test for analgesia, a light beam is focused on the tip of the rat's tail, and the pain threshold of the animal is measured by the latency of the rat to remove his tail from the noxious heat source. When tested by the rat-tail flick method by intracerebroventricular injection, according to the procedure of Belluzzi et al., Nature, 260, 625 (1976), the pentapeptide H-Tyr-Gly-Gly-Phe-d-Lys-OH produced the effects set forth in Table I.
*All drugs were dissolved in […]. of Ringer's solution and injected int
the lateral ventricle through permanently-indwelling cannulae.

[2] = system: opiate receptors; test: displacement of 3H-naloxone from binding sites in rat brain homogenates
[3] = system: mouse vas deferens; conditions: cited from earlier work
[4] = system: opiate receptor; conditions: brain homogenates; cited from earlier work
[5] = system: guinea pig ileum; conditions: cited from earlier work
[6] = system: rats; conditions: injection in the brain ventricle in rats; cited from earlier work
[7] = dose 100 μg into the lateral ventricle
[8] = dose 10 μg into the lateral ventricle

NCCCC[C@@H](NC(=O)[C@H](Cc1ccccc1)NC(=O)CNC(=O)CNC(=O)[C@@H](N)Cc1ccc(O)cc1)C(=O)O [H-Tyr-Gly-Gly-Phe-D-Lys-OH, L-Tyrosyl-Glycyl-Glycyl-L-Phenylalanyl-D-Lysine] (H-YGGF[dK]-OH)
Mean % Change ± SEM [1, 7]: 78.97 ± 7.85%
analgesic effect / pain threshold [1]: produced an increase in pain threshold
analgesic effect / pain threshold ([1]; listed as pentapeptide of Formula I): exerts an analgesic effect
Mean Latency ± SEM, Drug [1, 7]: 6.16 ± 0.06
binding to opiate receptors ([2]; in vitro): weak binding
displacement of 3H-naloxone from binding sites ([2]; rat brain homogenates): capable of displacing 3h-naloxone

CSCC[C@H](NC(=O)[C@H](Cc1ccccc1)NC(=O)CNC(=O)CNC(=O)[C@@H](N)Cc1ccc(O)cc1)C(=O)O [Methionine-Enkephalin, H-Tyr-Gly-Gly-Phe-Met-OH]
Mean % Change ± SEM [1, 7]: 37.2 ± 8.8%
Mean Latency ± SEM, Drug [1, 7]: 5.19 ± 0.31
block of electrically evoked contractions [3]: mimic the ability of morphine to block electrically evoked contractions
inhibition of stereospecific receptor binding of 3H-naloxone [4]: inhibit the stereospecific receptor binding
block of electrically evoked contractions [5]: mimic the ability of morphine to block electrically evoked contractions
analgesia [6]: induce a profound analgesia that is fully reversible by naloxone

CN1CC[C@]23c4c5ccc(O)c4O[C@H]2[C@@H](O)C=C[C@H]3[C@H]1C5.O=S(=O)(O)O [Morphine Sulfate]
Mean % Change ± SEM [1, 8]: 65.4 ± 9.1%
Mean Latency ± SEM, Drug [1, 8]: 6.59 ± 0.73

H-Tyr-Gly-Gly-Phe-Leu-OH [leucine-enkephalin]
analgesia [6]: induce a profound analgesia that is fully reversible by naloxone
